Values joined by “and” are separate entries in the source; they are usually repeats but may differ in a detail not shown here. Equal entries are not always repeated.
What was measured:
[1] = target: T1, TbERK8 (Trypanosoma brucei brucei, UniProt Q38B88); settings: cited from earlier work
T1 sequence (Q38B88 1-442): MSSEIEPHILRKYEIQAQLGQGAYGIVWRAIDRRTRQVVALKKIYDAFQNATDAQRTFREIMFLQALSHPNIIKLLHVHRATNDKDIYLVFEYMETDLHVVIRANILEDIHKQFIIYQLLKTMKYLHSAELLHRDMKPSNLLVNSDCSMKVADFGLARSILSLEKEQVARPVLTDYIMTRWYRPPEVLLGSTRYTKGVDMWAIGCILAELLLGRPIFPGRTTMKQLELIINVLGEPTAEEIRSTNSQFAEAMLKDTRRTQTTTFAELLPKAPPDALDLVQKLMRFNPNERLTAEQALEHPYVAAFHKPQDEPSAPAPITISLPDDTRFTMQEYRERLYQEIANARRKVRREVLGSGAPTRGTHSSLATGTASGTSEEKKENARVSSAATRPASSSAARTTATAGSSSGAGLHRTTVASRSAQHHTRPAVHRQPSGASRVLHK

[2] = target: T2, HsERK8 (Homo sapiens, UniProt Q8TD08); settings: cited from earlier work
T2 construct: plasmid pGEX2T expressing the full-length hERK8 coding region; made in house; host or cells: Escherichia coli Rosetta 2 (DE3)
T2 sequence (Q8TD08 1-544): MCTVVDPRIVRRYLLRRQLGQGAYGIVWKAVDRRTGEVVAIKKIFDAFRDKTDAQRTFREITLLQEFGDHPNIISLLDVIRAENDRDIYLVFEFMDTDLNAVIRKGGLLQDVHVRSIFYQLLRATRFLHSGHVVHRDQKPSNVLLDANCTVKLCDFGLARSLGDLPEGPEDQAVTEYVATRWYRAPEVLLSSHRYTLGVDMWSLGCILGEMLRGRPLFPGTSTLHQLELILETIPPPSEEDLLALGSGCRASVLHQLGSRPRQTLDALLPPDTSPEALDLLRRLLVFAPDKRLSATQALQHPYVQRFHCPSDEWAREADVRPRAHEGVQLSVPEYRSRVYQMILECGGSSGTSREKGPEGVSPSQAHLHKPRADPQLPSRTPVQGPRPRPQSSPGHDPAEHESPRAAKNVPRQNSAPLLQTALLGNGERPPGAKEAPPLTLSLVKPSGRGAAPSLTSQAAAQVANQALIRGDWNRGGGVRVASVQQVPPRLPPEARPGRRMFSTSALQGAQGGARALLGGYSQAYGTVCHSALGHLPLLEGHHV

[3] = system: T. brucei; settings: cited from earlier work
[4] = target: T1, TbERK8; assay: Luciferase-based kinase inhibition assay (ATP luminescence), GST-tagged TbERK8 with MBP substrate; format: biochemical; design: raw luminescence, TbERK8: unit of the concentration uncertain; settings: for raw luminescence, TbERK8: sheet Kinase_glo_080924_IFPS (2), replicate wells
Method: (§1) Escherichia coli strain Rosetta 2 (DE3) (Cat# 71397, MilliporeSigma, Burlington, MA) was transformed with the plasmid pGEX2T expressing the full-length hERK8 coding region or pGSTAg expressing the full-length TbERK8 coding region. One liter of Terrific Broth media containing 100 μg/ml Ampicillin and 30 μg/ml chloramphenicol in 2 L baffled flasks was inoculated with 25 mL from an overnight culture of Rosetta 2 strains harboring either the pGEX2T-hERK8 or pGSTAg-TbERK8 plasmid. Two baffled flasks were inoculated with each overnight strain and incubated and shaken at 175 RPM in a New Brunswick Innova 44R Incubator Shaker (Fischer Scientific, Pittsburgh, PA) at 37 °C until the cultures reached an O.D.600 of 0.94. Once the cultures in the flask reached the target O.D.600, the flasks were cooled to 4 °C in an ice water bath. The cooled cultures were induced by adding isopropyl β-D-1-thiogalactopyranoside (IPTG) to a final concentration of 0.1 mM and shaken at 16 °C for 16 hours at 175 RPM in a New Brunswick Innova 44R Incubator Shaker (Fischer Scientific, Pittsburgh, PA). On the next day, the cultures were pelleted by centrifugation at 9000 xg in a JLA 10.500 rotor (Beckman Coulter; Brea, CA), and the media was decanted. The pellet was flash-frozen in liquid nitrogen and then thawed on ice. The thawed pellet was resuspended in lysis buffer (25 mM Tris, 75 mM NaCl, 0.5% TritonX-100 and 0.5% Nonidet P-40, 1 mM phenylmethanesulfonyl fluoride, 1 mM benzamidine⋅HCl) and lysed using a microfluidizer M-110P from Microfluidics (Westwood, MA). The crude lysates were clarified by centrifugation at 140,000 xg in a 45Ti rotor (Beckman Coulter, Brea, CA) for 30 min at 4°C. The clarified lysate was loaded by gravity to a 3 mL glutathione agarose resin column (Cat# G-250–10, GOLDBIO, St. Louis, MO) formed in a 1.5 × 20 cm glass chromatography column (Cat# 7371522, Bio-Rad, Hercules, CA). The column was washed with 30 mL of PBS (pH 7.4) containing 1 mM DTT. Elution buffer (50 mM Tris buffer pH 8.0 containing 10 mM reduced glutathione and 1 mM DTT was added to the washed column), and 1 mL fractions were collected by gravity and examined by SDS-PAGE stained by Coomassie dye. Peak fractions pooled from the elution were dialyzed (4x 1:500 dilutions) in kinase buffer (30 mM Tris, pH 7.4, 10 mM MgCl2, 1 mM DTT, 5% glycerol).
(§2) We performed kinase assays in buffer K (30 mM Tris pH 7.4, 10 mM MgCl2, 1 mM DTT, 5% glycerol, 50 μM ATP, and 0.1 mg/mL BSA) at 30°C for 30 min in 30 μL reactions. GST-tagged HsERK8 and TbERK8 were tested using myelin basic protein (MBP) (Cat# 13–110, Millipore, Darmstadt, Germany) as the substrate at increasing concentrations to determine the optimal activity for the assay. ATP consumption was determined by adding equal volumes of the kinase assay reagent (Promega, Cat# V5601, Madison, WI) following the manufacturer’s protocol. Luminescence was measured using the microplate reader (SpectraMax L, Molecular Devices, Sunnyvale, CA).
(§3) These compounds were screened for kinase inhibition utilizing a luciferase-based assay. Briefly, the kinases were tested using MBP as the substrate at a 14-fold molar excess in 384-well flat-bottom white plates (BRANDTECH Scientific, Cat# 781681, Essex, CT). These compounds were tested at concentrations ranging from […] to 150 nM. The kinases plus MBP substrate reactions were incubated with each inhibitor for 30 minutes at 30°C. Equal volumes of kinase assay mix Promega (Cat# V5601, Madison, WI) were added to the kinase/inhibitor reaction after 30 minutes, following the manufacturer’s protocol. ATP luminescence was measured using a microplate reader (SpectraMax L, Molecular Devices, Sunnyvale, CA). IC50 values were calculated from assays done in triplicate by fitting the data using Prism 8.1.1 (GraphPad).

[5] = target: T2, HsERK8; assay: Luciferase-based kinase inhibition assay (ATP luminescence), GST-tagged HsERK8 with MBP substrate; format: biochemical; settings: for raw luminescence, HsERK8: sheet Kinase_glo_080924_IFPS (2), replicate wells
Method: as §1, §2, §3

[6] = at any tested concentration (10 mM to 150 nM)

Cc1cc(Nc2nc(N[C@@H](C)c3ccc(F)cc3)c(C#N)cc2F)n[nH]1 [AZ960, (S)-5-Fluoro-2-(1-(4-fluorophenyl)ethylamino)-6-(5-methyl-1H-pyrazol-3-ylamino)nicotinonitrile]
IC50 ([1]; read-out: IC50 for TbERK8 (published)): 120 nM
inhibition of HsERK8 [2]: inhibiting HsERK8 poorly
effect on T. brucei parasite [3]: killed the parasite

Cc1ncc(-c2ccnc(Nc3ccc(S(C)(=O)=O)cc3)n2)n1C(C)C [AZD5438]
inhibition of TbERK8 [1]: potent inhibitor
inhibition of HsERK8 [2]: potent inhibitor

C[C@]12CCC(=O)C=C1CC[C@H]1[C@@H]3CC[C@](O)(C(=O)CO)[C@@]3(C)C[C@H](O)[C@@]12F [Fludrocortisone]
raw luminescence, TbERK8 ([4]; 0.00015 (unit uncertain) compound): 1859.59 RLU and 2054.98 RLU and 1825.9 RLU
raw luminescence, TbERK8 ([4]; 0.00061 (unit uncertain) compound): 756.861 RLU and 669.272 RLU and 696.222 RLU
raw luminescence, TbERK8 ([4]; 0.00244 (unit uncertain) compound): 839.958 RLU and 756.861 RLU and 772.582 RLU
raw luminescence, TbERK8 ([4]; 0.00977 (unit uncertain) compound): 471.634 RLU and 512.06 RLU and 359.34 RLU
raw luminescence, TbERK8 ([4]; 0.03906 (unit uncertain) compound): 947.761 RLU and 727.664 RLU and 806.27 RLU
raw luminescence, TbERK8 ([4]; 0.15625 (unit uncertain) compound): 579.437 RLU and 552.486 RLU and 756.861 RLU
raw luminescence, TbERK8 ([4]; 0.62500 (unit uncertain) compound): 736.648 RLU and 693.976 RLU and 673.763 RLU
raw luminescence, TbERK8 ([4]; 2.50000 (unit uncertain) compound): 1122.94 RLU and 1073.53 RLU and 1107.22 RLU
raw luminescence, TbERK8 ([4]; 10.00000 (unit uncertain) compound, signal = ATP left): 4505.23 RLU and 4303.1 RLU and 4100.97 RLU
inhibition of kinase activity of TbERK8 [4, 6]: did not inhibit
raw luminescence, HsERK8 ([5]; 0.00015 mM compound): 3640.57 RLU and 3844.94 RLU and 3813.5 RLU
raw luminescence, HsERK8 ([5]; 0.00061 mM compound): 4118.94 RLU and 4395.18 RLU and 4579.35 RLU
raw luminescence, HsERK8 ([5]; 0.00244 mM compound): 4696.13 RLU and 4963.39 RLU and 5212.68 RLU
raw luminescence, HsERK8 ([5]; 0.00977 mM compound): 4772.49 RLU and 5547.32 RLU and 5378.88 RLU
raw luminescence, HsERK8 ([5]; 0.03906 mM compound): 6005.48 RLU and 7079.01 RLU and 7018.37 RLU
raw luminescence, HsERK8 ([5]; 0.15625 mM compound): 6266 RLU and 7171.09 RLU and 7216.01 RLU
raw luminescence, HsERK8 ([5]; 0.62500 mM compound): 7168.84 RLU and 8628.66 RLU and 8372.63 RLU
raw luminescence, HsERK8 ([5]; 2.50000 mM compound): 6252.52 RLU and 7644.97 RLU and 7582.08 RLU
raw luminescence, HsERK8 ([5]; 10.00000 mM compound, signal = ATP left): 11251.8 RLU and 11631.4 RLU and 11334.9 RLU
inhibition of kinase activity of HsERK8 [5, 6]: did not inhibit

Cn1cc(C2=C(c3cn(CCCSC(=N)N)c4ccccc34)C(=O)NC2=O)c2ccccc21 [Ro318220, 3-{3-[4-(1-Methyl-1H-indol-3-yl)-2,5-dioxo-2,5-dihydro-1H-pyrrol-3-yl]-1H-indol-1-yl}propyl carbamimidothioate]
greater potency inhibiting HsERK8 than TbERK8 ([2]; HsERK8 over TbERK8): 100–300 fold
IC50 ([2]; read-out: IC50 for HsERK8 (reported)): 5 to 10 nM

— publication PMC12445744, “Molecular docking to homology models of human and Trypanosoma brucei ERK8 that identified ortholog-specific inhibitors” (PLOS Neglected Tropical Diseases, 2025)
